Assay results published in PMC12040169 (PLOS Biology, 2025).

Assay: in vitro
Conditions: human, hela cells, % viability

| SMILES | viability at 28.5 h, 10 µM [%] |
| --- | --- |
| O=C1CC2(CCN(C(=O)c3ccccc3F)CC2)Oc2c(Cl)cc(Cl)cc21 [CBK156453] | 91.8 |
| CC(C)CNS(=O)(=O)c1ccc(N2CCCC2=O)cc1 [CBK304981] | 106 |
| CN(C)c1nc2ccc(OCCN3CCOCC3)cc2s1 [CBK261135] | 82.5 |
| Cc1noc(C)c1NC(=O)c1cncn1C [CBK200396] | 115 |
| COc1ccc(CCN2C(=O)c3[nH]nc(-c4cc(C)c(C)cc4O)c3C2c2ccccc2)cc1 (centres unmarked) [CBK269154] | 106 |
| CCCCC1C(=O)N(C)CCN1C(=O)NCc1cn2ccc(C)cc2n1 (centres unmarked) [CBK306648] | 91.8 |
| O=C(CSc1ncccn1)Nc1cccc(Cl)c1 [CBK058217] | 87.6 |
| COCC(C)NCc1cc(-c2ccc(Cl)cc2)c[nH]c1=O (centres unmarked) [CBK284726] | 79 |
| COCCNC(=O)c1cc(-c2ccc(Cl)cc2)cnc1NS(C)(=O)=O [CBK106421] | 94.4 |
| CCN(C(=O)CCc1nc2ccccc2n1C)C1CCN(C)CC1 [CBK281994] | 89.9 |
| COCCOC(=O)N1CCC(N(C)Cc2ccc(-c3ccc(S(C)(=O)=O)cc3)nc2)CC1 [CBK165258T] | 96.7 |
| Cc1oc(C(=O)O)cc1CSC(C)C(=O)O (centres unmarked) [CBK263556] | 93.8 |
| CCc1cc(C(=O)NC(CCn2ccnc2)c2ccccc2)cc(=O)[nH]1 (centres unmarked) [CBK306679] | 114 |
| O=C(c1ccc(-c2cnc3[nH]c(=O)n(Cc4ccccn4)c3n2)cc1)N1CCOCC1 [CBK064413] | 110 |
| CCN1C(=O)C2(CC(=O)N(CCCN(C)C(=O)c3ccco3)C2=O)c2cc(C)ccc21 (centres unmarked) [CBK075141] | 94.3 |
| O=C(Nc1cccnc1)N1CCCCC1CO (centres unmarked) [CBK155990] | 96.9 |
| Cc1nn2c(-c3ccncc3)ccnc2c1-c1ccccc1 [CBK288548] | 103 |
| Clc1cccc(CNc2cncc(-c3cccs3)n2)c1 [CBK065609] | 105 |
| CC(C)(C)c1cc(NC(=O)c2csc3c(C(F)(F)F)cc(N4CCN(Cc5ccccc5)CC4)nc23)no1 [CBK028962] | 108 |
| O=C(O)CNS(=O)(=O)c1ccc(Cl)c(Cl)c1 [CBK266981] | 86.2 |
| Cc1ccc2c(c1)C1(CCN(CC3CC3)CC1)NC(=O)C2 [CBK040217] | 94.8 |
| CC(Oc1cccc2ccccc12)C(=O)NN (centres unmarked) [CBK261209] | 112 |
| c1ccc(C(Oc2nccnc2-c2cccs2)c2ccccc2)cc1 [CBK107061] | 112 |

| SMILES | viability at 28.5 h, 10 µM [%] |
| --- | --- |
| O=C(CCCn1ccnc1)N1CCCC(c2cc3cccnc3[nH]2)C1 (centres unmarked) [CBK284959] | 107 |
| Cc1ccc(OCC(=O)NC(C)c2ccc(F)cc2F)c([N+](=O)[O-])n1 (centres unmarked) [CBK295662] | 92.7 |
| CN1CCC(NC(=O)c2cc3ccccc3[nH]2)CC1 [CBK168633] | 88.3 |
| O=C(CSc1ncn(-c2ccccc2)n1)Nc1c(Cl)cccc1Cl [CBK269683] | 94.7 |
| COc1cccc(C2CC(=O)Nc3c2c(=O)nc(SC)n3C)c1 (centres unmarked) [CBK307546] | 104 |
| CC(=O)c1c(C)oc2ccc(O)c(CN3CCOCC3)c12 [CBK160396] | 104 |
| O=C(CC(CN1CCN(CC(=O)N2CCCC2)CC1)C(=O)O)Nc1ccccc1 (centres unmarked) [CBK286844] | 87.9 |
| O=C(NCc1ccccn1)c1cnn2c(C(F)(F)F)cc(-c3cccs3)nc12 [CBK268195] | 99.9 |
| O=C(Nc1cccc(CCc2ccccn2)c1)c1ccc([N+](=O)[O-])cc1 [CBK269653] | 86.9 |
| CC(C)N(CCOc1nccnc1-c1ccc(OC(F)(F)F)cc1)C(C)C [CBK106848] | 89.3 |
| COC(=O)c1ccc(CC(C)C)nc1SC1=NCCCN1 [CBK005294C] | 94.1 |
| O=C(c1cccnc1)C1CCN(C(=O)CC2CC3CCC2C3)CC1 (centres unmarked) [CBK283530] | 95.1 |
| Cc1cc2[nH]c(=O)oc2cc1S(=O)(=O)NCCN1CCCCC1CO (centres unmarked) [CBK307307] | 80.9 |
| O=C(NCC1COc2ccccc2O1)N1CCN(c2cc(C(F)(F)F)ccn2)CC1 (centres unmarked) [CBK156432] | 88.2 |
| CCOC(=O)c1sc(NS(=O)(=O)c2cccc(Cl)c2C)nc1-c1ccccc1 [CBK000749] | 92.7 |
| Cc1ccc(N(CC(O)CNC23CC4CC(CC(C4)C2)C3)S(=O)(=O)c2ccccc2)cc1 (centres unmarked) [CBK264741] | 110 |
| O=C(O)c1cccc(-n2c(S)nnc2-c2ccncc2)c1 [CBK269260] | 105 |
| CCN1CCC(NCc2ccc(OCC(N)=O)cc2)CC1 [CBK306106] | 85.9 |
| CCC(CC(=O)NCc1c(C)n[nH]c1C)c1c[nH]c2ccccc12 (centres unmarked) [CBK282651] | 87.1 |
| O=C(Nc1cccnc1)c1cc(S(=O)(=O)N2CCCCC2)c(Cl)cc1Cl [CBK264567] | 91.9 |
| COc1ccccc1C/C(N)=N/OC(=O)COc1ccc2ccccc2c1 [CBK263730] | 89.7 |
| COc1cc(CN2CCNCC2)c2ccn(S(=O)(=O)c3ccccc3C#N)c2c1 [CBK144486T] | 89.4 |
| O=C(O)CCCC(=O)Nc1ccc(Cc2ccncc2)cc1 [CBK300493] | 93.1 |

| SMILES | viability at 28.5 h, 10 µM [%] |
| --- | --- |
| COc1ccccc1CCCNC(=O)c1ccc2nc(C)[nH]c2c1 [CBK283258] | 84.7 |
| CN1CCN(c2ccc([N+](=O)[O-])c(NCCCO)c2)CC1 [CBK261846C] | 86.5 |
| CC(=O)N1CCN([C@H]2[C@@H]3OC[C@@H](O3)[C@@H](NCC3CCCCC3)[C@@H]2O)CC1 [CBK288809] | 90.6 |
| O=C(O)CCSc1nnnn1C1CCCCC1 [CBK263052] | 88.9 |
| CCN(NC(=O)c1cc2cccc(OC)c2o1)c1ccc(C)cc1 [CBK161484] | 106 |
| CC(C)N1CCC(=NNC(=O)C(O)c2ccccc2)CC1 (centres unmarked) [CBK019361] | 110 |
| CC(Sc1nc(N)cc(N)n1)C(=O)c1ccc(F)c(F)c1 (centres unmarked) [CBK296928] | 94.7 |
| O=C(O)c1cccc(Sc2nccc(C(F)(F)F)n2)c1 [CBK115957] | 90.2 |
| O=C(Nc1ccc(F)cc1)c1sccc1NS(=O)(=O)c1cc(F)c(Br)cc1F [CBK004586] | 94.4 |
| COc1cc(-c2cn3ccnc3c(N(C)CCN(C)C)n2)cc(OC)c1OC [CBK066196] | 100 |
| CC(=O)Nc1nc(NC(C)=O)n(-c2ccccc2)n1 [CBK287938] | 86 |
| O=C1N=C(NC2CCCCCC2)S[C@@H]1CC1CCCCC1 [CBK070723] | 95.8 |
| Cc1cc(CN(C)c2nccc(N3CCN[C@H]4CS(=O)(=O)C[C@H]43)n2)no1 [CBK306580] | 109 |
| Cc1cc(S(=O)(=O)NC2CCCCC2)ccc1OCC(=O)O [CBK267832] | 104 |
| Cn1nccc1C(=O)N[C@H]1CCC[C@@H](c2c[nH]c3ccccc23)C1 [CBK285073] | 93.6 |
| COc1ccccc1CC(C)NC(=O)c1cc(C2CC2)nn1C (centres unmarked) [CBK283290] | 83.8 |
| COc1ccccc1C(=O)N1CCN(c2nc3c(s2)c(C)nn3C)CC1 [CBK306836] | 86.6 |
| CC(Cn1cncn1)NC(=O)c1cccc(S(=O)(=O)NC2CCCC2)c1 (centres unmarked) [CBK304209] | 89 |
| Cc1nc2n(CCN3CCCCC3)c3ccccc3n2n1 [CBK278258C] | 91.5 |
| C(=C\c1cccc(N2CCN(CCN3CCCC3)CC2)n1)/c1ccccc1 [CBK036853] | 97.8 |
| NC(=O)C1CCN(C(=O)CSc2nc3ccccc3s2)CC1 [CBK293953] | 95.2 |
| CCn1nc(C)c(C(C)NC(=O)c2c3c(nn2CC)CCCC3)c1C (centres unmarked) [CBK282077] | 85 |
| O=C(Cc1c[nH]c2ccccc12)NC1CCCC1 [CBK200238] | 76.1 |

| SMILES | viability at 28.5 h, 10 µM [%] |
| --- | --- |
| Cc1c(C(=O)NCc2cc(C3CC3)[nH]n2)[nH]c2c(Cl)cccc12 [CBK282533] | 70.2 |
| CCCC(=O)c1ccc(S(=O)(=O)N2CCCN(Cc3c(C)[nH]c(C(=O)OCC)c3C)CC2)cc1 [CBK062947] | 101 |
| O=C(O)CCCc1[nH]nc(O)c1Cc1c(Cl)cccc1Cl [CBK081137] | 105 |
| Cc1nn(CC(=O)NC(C)c2cccnc2)c(C)c1C (centres unmarked) [CBK281489] | 102 |
| N#Cc1ccc(CN2CCOC3(CCN(C(=O)OCc4ccccc4)CC3)C2)cc1 [CBK161103T] | 99.1 |
| O=C(c1cc(F)cc(F)c1)N1CC[C@@H](c2ccccc2)[C@H](O)C1 [CBK283715] | 79.1 |
| OCC(CO)(CO)NCc1ccc(-c2ccccc2)cc1 [CBK268742C] | 93.2 |
| O=C(O)C1CCC(CNc2ccc([N+](=O)[O-])cn2)CC1 (centres unmarked) [CBK286626] | 81.2 |
| O=C(CC12CC3CC(CC(C3)C1)C2)Nc1nc[nH]n1 [CBK288208] | 117 |
| CC(=O)c1sc(NC(=O)Cc2ccc(C)cc2)nc1C [CBK287760] | 89.3 |
| CS(=O)(=O)c1ccc(CN2CCOC3(CCN(C(=O)c4ccc5ccccc5c4)CC3)C2)cc1 [CBK161122A] | 104 |
| O=C1N(Cc2ccc(Br)cc2)CCc2cncn21 [CBK021187] | 79.7 |
| CCc1cc(=O)[nH]c(-c2ccc(N3CCCC3C(=O)N(C)C)nc2)n1 (centres unmarked) [CBK304197] | 89.2 |
| C=CCn1c(Cc2csc(NC(=O)CCc3nc4ccccc4c(=O)[nH]3)n2)n[nH]c1=S [CBK297888] | 88.8 |
| Cc1ccc(C(O)CN2CCC(O)(c3ccc(F)cc3)CC2)cc1 (centres unmarked) [CBK283309] | 94.5 |
| COc1ccc2c(c1OC)C(=O)N(c1ncc(C)s1)C2 [CBK109943] | 99 |
| Cc1ccc(-c2cc(C(=O)Nc3ccc(S(=O)(=O)Nc4nccs4)cc3)c3ccccc3n2)c(C)c1 [CBK262638] | 85.3 |
| CCn1c(COc2c(C)cccc2C)nnc1SCC(=O)N1c2ccccc2Sc2ccccc21 [CBK268103] | 96.4 |
| O=C(Cc1ccc2c(c1)CCCO2)Nc1c(OCCn2cccn2)ccc2ccccc12 [CBK285679] | 96.9 |
| O=[N+]([O-])c1cccc(C(Nc2ccccn2)n2cnc3ccccc32)c1 (centres unmarked) [CBK261145] | 87.6 |
